These results are taken from patent US11077110B2, “Compositions and methods for treating and preventing metabolic disorders” (TUFTS MEDICAL CENTER, priority 2016, dated 2021).

One experiment has as its system WT-ADSCs cells. In words: anti-proliferation efficacy and cell cycle of CDK4/6 inhibitors against primary adipose derived stem cells. It counts as cell-based, mouse. The note with it: WT-ADSCs treated 6 days, PD 0.1 μM or LEE 10 μM, vs DMSO or vehicle; for frequency of proliferating cells (S-G2-M) / frequency of quiescence cells (G1): flow cytometric cell cycle profile; for total cell numbers: initial plating 5×10^5 cells. As for the experimental part:
(a, d) representative flow cytometric cell cycle profiles of WT-ADSCs cells treated with either PD (0.1 μM) or LEE (10 μM) for 6 days. (b, e) histograms summarizing the cell cycle distribution of the cells in A and D. Data shown are mean±s.d. (n=6); *P<0.05 vs DMSO or V, t-test. (c, f) Histograms summarizing the total cell numbers in WT-ADSCs cells treated with DMSO or PD (0.1 μM) for 6 days (c), or WT-ADSCs cells treated with vehicle (0.5% methycellulose) or LEE for 6 days (F). Data shown are mean±s.d. (n=6); *P<0.05 vs DMSO or V, t-test. The initial plating cells were 5×10^5.
To accomplish this, the anti-proliferation efficacy of CDK4/6 inhibitors against primary adipose derived stem cells (ADSCs) from the stromal vascular fraction (SVF) of WT adipose tissue (WT-ADSCs) we assessed. WT-ADSCs were treated with two known commercial available CDK4/6 inhibitors PD0332991 (PD) and LEE011 (LEE), two clinically relevant small molecule inhibitors of CDK4 and CDK6 kinases (Rader, J., et al. Clin Cancer Res 19, 6173-6182, 2013); Fry, D. W., et al. Mol Cancer Ther 3, 1427-1438, 2004; Pikman, Y., et al. Clin Cancer Res 23, 1012-1024, 2017) for 6 days with commonly used relevant effective doses (Fry, D. W., et al. Mol Cancer Ther 3, 1427-1438, 2004; Pikman, Y., et al. Clin Cancer Res 23, 1012-1024, 2017).

A further experiment concerns WT-ADSCs. In words: differentiation towards brown-like adipocytes in the presence of BAT inducers. Type of experiment: cell-based, mouse. The note with it: WT-ADSCs with BAT inducers; LEE011 10 μM, PD 0.1 μM; vs vehicle. As for the experimental part: (a, d) Representative images of Oil Red O staining of differentiated ADSCs from WT and K43M mice (a, 10×) or WT-ADSCs treated with CDK4/6 inhibitor LEE011 (10 μM) and PD (0.1 μM) (a, 10×) in the presence of BAT inducers. (b, e) Representative images of Oil Red O staining of differentiated ADSCs from WT and K43M mice (b, 40×) or WT-ADSCs treated with CDK4/6 inhibitor LEE011 10 μM and PD 0.1 μM (e, 40×) in the presence of BAT inducers. (c, f) Representative images of bright field images of differentiated ADSCs from iWAT of WT and K43M mice or WT-ADSCs treated with CDK4/6 inhibitor LEE011 (10 μM) and PD (0.1 μM) (f, 40×) in the presence of BAT inducers.
(a) Relative mRNA levels of BAT markers Ucp-1, Pgc-1α and Cidea in differentiated ADSCs in the presence of BAT inducers. […] (b) lysates from cells were analyzed by immunoblotting for expression of CDK6, UCP-1, PGC-1α, and RUNX1. […]
Cellular differentiation entails the coordination of cell cycle arrest and tissue-specific gene expression. […] Accumulation of lipid-containing cells was detected by Oil red O staining as described (Hansen, J. B., et al. J Biol Chem 274, 2386-2393, 1999) (FIG. 11 a-b) and the characteristic feature of multilocular beige cells were also visualized under light microscopy (FIG. 11c). […]

As to `CN(C)C(=O)c1cc2cnc(Nc3ccc(N4CCNCC4)cn3)nc2n1C1CCCC1` [LEE011, Ribociclib], in the experiment on WT-ADSCs cells, the “frequency of proliferating cells (S-G2-M)” value was “dramatic reduction”, the “frequency of quiescence cells (G1)” value is “increased frequency” and the total cell numbers result is listed as “successfully reduced”. Further, the brown-like adipocyte differentiation result with WT-ADSCs is “can induce brown-like adipocytes in vitro”.

For `CC(=O)c1c(C)c2cnc(Nc3ccc(N4CCNCC4)cn3)nc2n(C2CCCC2)c1=O` [PD0332991, palbociclib], in the experiment on WT-ADSCs cells, the “frequency of proliferating cells (S-G2-M)” value is “dramatic reduction”, the “frequency of quiescence cells (G1)” value is on record as “increased frequency” and the total cell numbers entry is “successfully reduced”. Also, the brown-like adipocyte differentiation result in the experiment with WT-ADSCs is recorded as “can induce brown-like adipocytes in vitro”.
